# Data taken from PMC2826131 (Journal of the American Chemical Society, 2010).
# Experiments:
# ferric nNOS heme domain = ferric nNOS heme domain (Rattus norvegicus, UniProt P29476); assay: Ferric difference spectrometry; assay type: binding; conditions: type of difference spectrum toward ferric nNOS heme domain
# ferrous nNOS heme domain = ferrous nNOS heme domain (Rattus norvegicus, UniProt P29476); assay: Ferrous difference spectrometry; assay type: binding; conditions: type of difference spectrum toward ferrous (dithionite-reduced) nNOS heme domain
# ferrous nNOS heme domain, sequence (P29476 297-718 limits assumed): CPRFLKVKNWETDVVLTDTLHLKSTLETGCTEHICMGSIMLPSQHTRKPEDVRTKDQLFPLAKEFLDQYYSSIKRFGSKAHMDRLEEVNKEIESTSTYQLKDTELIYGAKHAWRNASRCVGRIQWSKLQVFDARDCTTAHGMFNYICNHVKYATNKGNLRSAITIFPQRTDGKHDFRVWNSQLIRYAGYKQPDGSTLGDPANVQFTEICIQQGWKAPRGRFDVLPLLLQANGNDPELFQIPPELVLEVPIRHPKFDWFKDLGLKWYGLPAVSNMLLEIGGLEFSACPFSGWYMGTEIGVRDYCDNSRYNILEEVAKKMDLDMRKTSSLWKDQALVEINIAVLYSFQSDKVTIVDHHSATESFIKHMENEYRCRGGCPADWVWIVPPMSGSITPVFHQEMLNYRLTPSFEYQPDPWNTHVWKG
# rat nNOS = rat nNOS (Rattus norvegicus, UniProt P29476); assay: NOS hemoglobin capture assay, Ki from IC50; assay type: biochemical; conditions: 10 μM L-arginine, calculated from IC50, mean ± SD of 2-3 experiments
# rat nNOS, sequence (P29476 whole entry, the tested form may be a part): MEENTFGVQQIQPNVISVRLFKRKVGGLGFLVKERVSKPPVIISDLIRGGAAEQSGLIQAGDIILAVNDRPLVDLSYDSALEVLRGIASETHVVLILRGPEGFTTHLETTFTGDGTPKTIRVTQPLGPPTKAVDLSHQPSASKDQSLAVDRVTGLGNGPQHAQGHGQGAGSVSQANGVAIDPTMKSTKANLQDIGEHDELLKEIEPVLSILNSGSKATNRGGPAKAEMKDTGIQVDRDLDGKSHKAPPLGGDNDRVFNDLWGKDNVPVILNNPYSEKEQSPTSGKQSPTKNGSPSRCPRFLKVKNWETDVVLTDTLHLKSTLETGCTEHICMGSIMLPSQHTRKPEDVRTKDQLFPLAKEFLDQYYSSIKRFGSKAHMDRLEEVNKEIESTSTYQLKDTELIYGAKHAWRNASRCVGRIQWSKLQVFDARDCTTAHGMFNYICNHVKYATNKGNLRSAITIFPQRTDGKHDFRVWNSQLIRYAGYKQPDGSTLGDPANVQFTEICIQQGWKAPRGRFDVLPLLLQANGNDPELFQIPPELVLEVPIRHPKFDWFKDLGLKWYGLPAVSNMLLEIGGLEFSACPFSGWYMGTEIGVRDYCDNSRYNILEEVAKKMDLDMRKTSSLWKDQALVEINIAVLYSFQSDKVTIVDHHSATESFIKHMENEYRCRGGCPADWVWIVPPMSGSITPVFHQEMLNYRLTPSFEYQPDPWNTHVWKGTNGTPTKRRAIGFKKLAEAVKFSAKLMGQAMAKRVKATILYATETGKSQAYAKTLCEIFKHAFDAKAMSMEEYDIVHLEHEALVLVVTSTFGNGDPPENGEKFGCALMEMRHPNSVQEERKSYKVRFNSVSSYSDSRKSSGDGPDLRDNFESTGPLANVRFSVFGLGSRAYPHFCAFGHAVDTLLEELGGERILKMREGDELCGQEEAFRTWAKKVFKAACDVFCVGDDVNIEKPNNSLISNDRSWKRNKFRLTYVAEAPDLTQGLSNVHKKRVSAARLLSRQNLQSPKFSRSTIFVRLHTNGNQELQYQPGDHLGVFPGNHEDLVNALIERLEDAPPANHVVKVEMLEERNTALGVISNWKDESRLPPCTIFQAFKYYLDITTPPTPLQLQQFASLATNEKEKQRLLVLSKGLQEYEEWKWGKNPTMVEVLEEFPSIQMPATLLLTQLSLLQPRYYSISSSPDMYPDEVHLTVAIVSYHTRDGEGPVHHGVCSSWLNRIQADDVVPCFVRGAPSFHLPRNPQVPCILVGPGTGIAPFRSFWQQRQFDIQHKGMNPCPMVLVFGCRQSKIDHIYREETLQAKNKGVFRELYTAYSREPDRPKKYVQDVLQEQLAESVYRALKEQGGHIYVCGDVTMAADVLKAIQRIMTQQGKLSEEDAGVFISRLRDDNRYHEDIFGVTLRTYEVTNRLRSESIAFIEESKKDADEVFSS
# ferric nNOS heme domain, sequence (P29476 297-718 limits assumed): as the sequence (P29476 297-718 limits assumed) above
Structure (SMILES),Fe^3+ type (ferric nNOS heme domain),Fe^2+ type (ferrous nNOS heme domain),Ki (rat nNOS)
NC(=NCCC[C@H](N)C(=O)O)N[N+](=O)[O-] [L-Nitroarginine],I,I,
c1c[nH]cn1 [Imidazole],,I,29.7 ± 0.8 µM
